What was measured:
[1] = system: HL60 (human leukaemia); test: Cytotoxicity in vitro, cellular viability (ATPlite Perkin Elmer test), HL60; assay type: cell-based; set-up: cellular viability (ATPlite Perkin Elmer test): unit not given here; conditions: HL60
Experimental: (§1) The cytotoxic effects of the compounds of formula (A) were evaluated by treating […] with different concentrations of the compounds under screening. The following cell lines were used: A2780 (human ovarian carcinoma), HL60 (human leukaemia), C6 (rat glioma) and HT29 (adenocarcinoma of human colon). The cell lines have been obtained by ECACC (European Collection of Cell Cultures).
(§2) The cell lines have been cultured in 75 cm^2 flasks with culture medium DMEM (Dulbecco's Medium Eagle Modified, Sigma Aldrich®) and the following additives (Sigma Aldrich®): L-Glutamine 2 mM, 10% Fetal Bovine Serum, Penicillin/-Streptomycin, Fungizone, Gentamycin. The incubation was carried out in modified atmosphere incubators (37° C., 5% CO2). When cell confluence was obtained, the cells were propagated by dilution in a ratio 1:3/1:5 by using a Trypsin-EDTA 1× solution and then transferred into 96 well plates in the suitable culture medium. The cells were then treated for 72 hours with different concentrations (10^−13+10^−4 M) of the compounds under examination. For the tests in vitro the compounds obtained in the examples 1.15 and 6.8 were solubilised in dimethylsulphoxide (DMSO). All the tests were performed with a constant DMSO concentration equal to 0.1% by weight.
(§3) In order to control the cellular viability, the ATPlite test (Perkin Elmer) was used. The APTlite test evaluates the ATP production. APT is a marker of cellular viability as it is present in all the metabolically active cells. The test’ is based on the chemiluminiscence due to the ATP reaction with the luciferase and the D-luciferin. The emitted light is proportional to the ATP concentration. For the reading the Victor 3 instrument by Perkin Elmer was used.
(§4) Four readings were taken for each sample solution. The results (average values) for the cytotoxicity of the compounds of formula (A) obtained in examples 1.15 and 6.8 are reported respectively in Tables 1 and 2. It is noted that the GI50 values determined by means of the cellular viability values are lower than 2 nM. This confirms the high cytotoxicity of the compound of formula (A).

[2] = system: HT29 (adenocarcinoma of human colon); test: Cytotoxicity in vitro, cellular viability (ATPlite Perkin Elmer test), HT29; assay type: cell-based; set-up: cellular viability (ATPlite Perkin Elmer test): unit not given here; conditions: for cellular viability (ATPlite Perkin Elmer test): 72 hours
Experimental: as §1, §2, §3, §4

[3] = system: A2780 (human ovarian carcinoma); test: Cytotoxicity in vitro, cellular viability (ATPlite Perkin Elmer test), A2780; assay type: cell-based; set-up: cellular viability (ATPlite Perkin Elmer test): unit not given here; conditions: 72 hours
Experimental: as §1, §2, §3, §4

[4] = system: A2780, HL60, C6 and HT29 cell lines; test: Cytotoxicity in vitro, summary over the cell lines of example 14; assay type: cell-based, human; rat; conditions: all cell lines of Tables 1 and 2; read-out: GI50 values determined by means of the cellular viability values
Experimental: as §1
as §2, with “All the tests were performed with a constant DMSO concentration equal to 0.1% by weight.” left out
In order to control the cellular viability, the ATPlite test (Perkin Elmer) was used. […] For the reading the Victor 3 instrument by Perkin Elmer was used.
Four readings were taken for each sample solution. […]

## CC[C@H](C)[C@H](NC(=O)[C@H]1CCCCN1C)C(=O)N(CCOC)[C@H](C[C@@H](OC(C)=O)c1nc(C(=O)NC)cs1)C(C)C [Example 15.4, (1R,3R)-3-((2S,3S)—N-(2-methoxyethyl)-3-methyl-2-((R)-1-methylpiperidine-2-carboxamido)pentanamido)-4-methyl-1-(4-(methylcarbamoyl)thiazol-2-yl)pentyl acetate, reference compound]
[1]; concentration of 10^−10 mole/liter
  cell viability: 96%
[1]; concentration of 10^−11 mole/liter
  cell viability: 99.8%
[1]; ratio of GI50 values
  times less toxic than the compounds of the present invention: 10^3 times
[1]; Homo sapiens, HL-60, read-out: citotoxicity, expressed as GI50
  GI50: 10 nM

## CCC(C)[C@H](NC(=O)[C@H]1CCCCN1C)C(=O)N(Cc1ccccc1)[C@H](C[C@@H](OC(C)=O)c1nc(C(=O)N[C@@H](Cc2ccccc2)C[C@H](C)C(=O)O)cs1)C(C)C (stereo in doubt) [Example 1.15, (2S,4R)-4-(2-((1R,3R)-1-acetoxy-3-((2S,3R)—N-benzyl-3-methyl-2-(1-methylpiperidin-2-carboxamido)pentanamido)-4-methylpentyl)thiazol-4-carboxamido)-2-methyl-5-phenyl-pentanoic acid]
[1]; 72 hours, value is GI50 multiplied by 10^9, Table 1
  GI50 × 10^9: 0.0004 moles/litre
[1]; compound 10^−4 mole/litre, 72 hours
  cellular viability (ATPlite Perkin Elmer test): 0.47
[1]; compound 10^−5 mole/litre, 72 hours
  cellular viability (ATPlite Perkin Elmer test): 2.57
[1]; compound 10^−6 mole/litre, 72 hours
  cellular viability (ATPlite Perkin Elmer test): 2.99
[1]; compound 10^−7 mole/litre, 72 hours
  cellular viability (ATPlite Perkin Elmer test): 2.69
[1]; compound 10^−8 mole/litre, 72 hours
  cellular viability (ATPlite Perkin Elmer test): 2.94
[1]; compound 10^−9 mole/litre, 72 hours
  cellular viability (ATPlite Perkin Elmer test): 3.66
[1]; compound 10^−10 mole/litre, 72 hours
  cellular viability (ATPlite Perkin Elmer test): 8.29
[1]; compound 10^−11 mole/litre, 72 hours
  cellular viability (ATPlite Perkin Elmer test): 22.65
[1]; compound 10^−12 mole/litre, 72 hours
  cellular viability (ATPlite Perkin Elmer test): 34.26
[1]; compound 10^−13 mole/litre, 72 hours
  cellular viability (ATPlite Perkin Elmer test): 98.98
[2]; Homo sapiens, HT-29, 72 hours, value is GI50 multiplied by 10^9, Table 1
  GI50: 0.312 nM
[2]; compound 10^−4 mole/litre
  cellular viability (ATPlite Perkin Elmer test): 15.14
[2]; compound 10^−5 mole/litre
  cellular viability (ATPlite Perkin Elmer test): 14.55
[2]; compound 10^−6 mole/litre
  cellular viability (ATPlite Perkin Elmer test): 15.43
[2]; compound 10^−7 mole/litre
  cellular viability (ATPlite Perkin Elmer test): 16.85
[2]; compound 10^−8 mole/litre
  cellular viability (ATPlite Perkin Elmer test): 17.55
[2]; compound 10^−9 mole/litre
  cellular viability (ATPlite Perkin Elmer test): 20.77
[2]; compound 10^−10 mole/litre
  cellular viability (ATPlite Perkin Elmer test): 99.08
[2]; compound 10^−11 mole/litre
  cellular viability (ATPlite Perkin Elmer test): 102.2
[2]; compound 10^−12 mole/litre
  cellular viability (ATPlite Perkin Elmer test): 103.2
[2]; compound 10^−13 mole/litre
  cellular viability (ATPlite Perkin Elmer test): 104.5
[3]; Homo sapiens, value is GI50 multiplied by 10^9, Table 1, read-out: GI50 × 10^9
  GI50: 0.0018 nM
[3]; compound 10^−4 mole/litre
  cellular viability (ATPlite Perkin Elmer test): 3.10
[3]; compound 10^−5 mole/litre
  cellular viability (ATPlite Perkin Elmer test): 7.23
[3]; compound 10^−6 mole/litre
  cellular viability (ATPlite Perkin Elmer test): 9.60
[3]; compound 10^−7 mole/litre
  cellular viability (ATPlite Perkin Elmer test): 10.60
[3]; compound 10^−8 mole/litre
  cellular viability (ATPlite Perkin Elmer test): 11.78
[3]; compound 10^−9 mole/litre
  cellular viability (ATPlite Perkin Elmer test): 25.08
[3]; compound 10^−10 mole/litre
  cellular viability (ATPlite Perkin Elmer test): 25.04
[3]; compound 10^−11 mole/litre
  cellular viability (ATPlite Perkin Elmer test): 32.71
[3]; compound 10^−12 mole/litre
  cellular viability (ATPlite Perkin Elmer test): 65.66
[3]; compound 10^−13 mole/litre
  cellular viability (ATPlite Perkin Elmer test): 100.1
[4]
  GI50: < 2 nM

Source: US8580820B2, “Tubulysin compounds with high cytotoxicity, pharmaceutical compositions thereof, and method of use thereof” (Kemtech S.r.L., priority 2009, dated 2013)
